# Laboratory results taken from patent US8697441B2, “Method of inducing high activity of human adipose stem cell and medium therefor” (Seoul National University Hospital, priority 2009, dated 2014).
# Columns and labels:
# human adipose stem cells [1] = assay: Culturing of adipose stem cells in medium containing glycerol, cell counting; format: cell-based
# Description: Through experiments to elucidate the mechanism of improved growth ability observed in coculturing with adipocytes, The present inventors have confirmed that the fat metabolite glycerol is one of the important factors and found out that the growth ability and differentiation efficiency can be enhanced only with glycerol, without adipocytes. […] […] […] In addition, the degree of DNA polymerization was evaluated by BrdU assay in order to further investigate the ability of cell growth and differentiation.
# human adipose stem cells [2] = assay: Growth ability (BrdU assay); format: cell-based; conditions: FIG. 6b
# Description: 1. Growth Ability (BrdU Assay) DNA polymerization occurring during cell growth was quantitated using BrdU. The same number of isolated human adipose stem cells (2×10^4 cells each) were cultured in a culture dish in α-MEM containing 10-100 μM glycerol and 10% FBS. […] In addition, the degree of DNA polymerization was evaluated by BrdU assay in order to further investigate the ability of cell growth and differentiation.
# AKT = assay: Analysis of activation mechanism: degree of AKT activation (pAKT/tAKT); format: cell-based, human; conditions: FIG. 7; decreased again by inhibition of aquaporins (AQ1 and AQ9)
# Description: Then, protein was extracted from the cells of each group and the degree of AKT activation, which is a measure of cell activity, was measured. […] The degree of AKT activation is evaluated from the ratio of phosphorylated AKT (pAKT) to total AKT (tAKT). The total AKT was normalized with β-actin which is normally expressed in cells.
# [3] = tested on: human adipose stem cells cocultured with HUVECs; assay: Matrigel tube formation assay after coculturing with HUVECs; format: cell-based; conditions: FIG. 8; adipose stem cells exposed to glycerol vs not exposed
# Description: 3. Tube Formation Assay Vascular tube formation ability was observed after coculturing the cells with human umbilical vein endothelial cells (HUVECs). Differentiation potency was evaluated by Matrigel tube formation assay, which is widely used to compare formation of capillary-like structures in vitro, after coculturing human adipose stem cells with HUVECs.
compound,measurement,setting,value
OCC(O)CO [glycerol],most effective glycerol concentration,"human adipose stem cells [1]; FIG. 6, cell number, BrdU, morphology",10 µM
same,cell number,"human adipose stem cells [1]; FIG. 6a, adipose stem cells cultured in medium containing glycerol, by glycerol concentration",increased in a glycerol concentration-dependent manner
same,cell number versus control groups,"human adipose stem cells [1]; G10 (10 μM glycerol), α-MEM with 10% FBS, 2×10^4 cells seeded, FIG. 6a",showed a cell number larger than those of the negative control group “control” and the positive control group “bFGF (4 ng/mL)”
same,cytotoxicity,human adipose stem cells [1]; glycerol concentration 500 μM,cytotoxicity was observed
same,BrdU incorporation owing to cell division,human adipose stem cells [2]; with glycerol concentration,increased BrdU incorporation
same,DNA synthesis (BrdU assay),human adipose stem cells [2]; group G1,showed active DNA synthesis
same,DNA synthesis (BrdU assay),human adipose stem cells [2]; group G10 (10 μM glycerol),showed active DNA synthesis
same,AKT activity,AKT,increased AKT activity
same,vascular tube formation ability,[3],increased vascular structures and densities
